“Also recorded” adds a separate entry of the source. Each block holds one molecule with its values, some of them ahead of it.
How the values were obtained:
[1] = tested on: Diaprepes abbreviatus antenna (male and female); assay: gas chromatograph-coupled electroantennogram detection (GC-EAD) of antennal response; settings: for antennal response (GC-EAD) to peaks of headspace extract: hexane extract of headspace volatiles from adult males and citrus leaves (FIG. 2); for antennal response (GC-EAD): male and female antennae, 50 ng linalool and 100 ng synthetic compound in hexane (FIG. 4)
Excerpt: In a first assay employed to find an attractive chemical of insect origin, a gas chromatograph-coupled electroantennogram detection (GC-EAD) system was used to analyze male aeration samples. This system included an Agilent 7890A GC equipped with a split/splitless injector, an HP-1 capillary column (approximately 30 m×0.32 mm×0.25 μm, Agilent Technologies, Inc., Santa Clara, Calif., USA), a post column glass Y-tube (Supelco, Bellefonte, Pa., USA) splitter for dividing column effluent in an approximately 1:1 ratio between a flame ionization detector (FID) and a heated (200° C.) EAD transfer line. Two lengths of deactivated column (approximately 0.32 mm ID) were used to carry effluent to the FID and EAD port after the split. At the start of GC-EAD runs, the GC oven temperature was held at about 35° C. for 3 minutes and then increased to about 260° C. at a rate of about 15° C./min and held at about 260° C. for about 10 min. Injector and FID temperatures were set at about 220° C. and about 300° C., respectively. Splitless injection was used with helium as the carrier gas at a flow rate of about 2.3 ml/min. A heated transfer line emptied into a charcoal-filtered, humidified air stream (about 200 ml/min at about 30 cm/sec) that carried the effluent over an antennal preparation. The antennal preparation can be made by plucking the antenna from either a male or female insect (grasping it firmly at the base of the antenna near the head with fine forceps) and placing the antenna between two metal electrodes of a Universal EAG probe, to which small amounts of salt-free electrode gel (Spectra 360, Parker Laboratories, Fairfield, N.J., USA) had been applied. The probe was connected to a type PRG-2 amplifier (Universal EAG probe, Syntech, Hilversum, The Netherlands). The humidified air stream was directed to pass over the antennal preparation generating a signal. […] […] […] […] Antennae from male and female D. abbreviatus were used as detectors to confirm antennal response to the synthetic compound.

[2] = tested on: Diaprepes abbreviatus antenna (male and female); settings: used as co-injected control for antenna viability; cited from earlier work
[3] = stability of the pheromone (lactonization; acid, heat, storage); assay type: physicochemical; settings: for stability in acidic medium (lactonization to 2): acid-catalyzed THP removal, CDCl3 with residual acidity
Protocol: At the core of the chosen synthetic route lies a stereoselective carbocupration of α,β-acetylenic esters that was exclusively cis-stereospecific when the reaction was conducted in THF at low temperatures (Corey and Katzenellenbogen 1969, Bourque et al. 1999, Drew et al. 1999). However, a conjugate addition of a heterocuprate, formed in situ from isopropylmagnesium bromide and copper(I) iodide in the presence of N,N,N,N'-tetramethylethylenediamine ([…] et al. 1984), to the acetylenic ester (FIG. 1) proceeded with some loss of stereoselectivity resulting in a mixture of E and Z olefinic esters in an approximately 92:8 ratio. During acid-catalyzed removal of the tetrahydropyranyl (THP) protecting group, the ratio of 1E and 1Z dropped to approximately 86:14 and a considerable amount of lactone 2 was formed, thus indicating instability of the putative pheromone in acidic medium.

[4] = tested on: Diaprepes abbreviatus adults; assay: two-choice olfactometer behavioral bioassay; assay type: in vivo; settings: for Number choosing A (air) / Number choosing B (odor source): A: air vs B: odor source; for No choice (number): moved to but remained in central arena; for No response (number): remained in inlet
Protocol: Behavioral response to the pheromone was tested in an olfactometer (Model 4C, ARS, Inc., Micanopy, Fla. USA) wherein individual weevils (starved for about 24 h) were placed in a glass inlet and allowed to walk upwards into the center of an arena with a balanced, filtered and humidified airflow from two arms oriented at 180° to each other and outfitted with glass reservoirs containing an odor source or blank. The assays were conducted in the dark between about 9 AM and 2 PM; each run was terminated when the weevil moved into one of the glass receptacles or when about 15 min had elapsed. Assays were run in the dark because of a strong phototropic response in this insect (Lapointe and Hall 2009). Weevil position was scored as no-response (remaining in the inlet), no-choice (moving to but remaining in the central arena) or choosing one of the two arms. Responses of unmated approximately 4 to 6-week-old males and females were recorded to various odor sources: fresh young citrus leaves (flush), flush fed upon for about 24 hr by male D. abbreviatus, approximately 30 μg of methyl (E)-3-(2-hydroxyethyl)-4-methyl-2-pentenoate in approximately 10:1 hexanes:ethyl acetate pipetted onto a glass slide, and a clean glass slide. All glass components of the olfactometer were thoroughly washed between runs with warm soap and water, rinsed with methanol and air-dried. Between replications of a given treatment, the arms of the olfactometer used for that treatment were switched to control for bias in the apparatus. The number of weevils choosing a treatment arm was compared with the control arm (clean air) by the G-test (Sokal and Rohlf 1994).

Compound: CC(C)=CCC/C(C)=C/CO (single isomer, unassigned) [geraniol, reference compound]
antennal response (GC-EAD) to peaks of headspace extract [1]: positive antennal responses

Compound: C=CC(C)(O)CCC=C(C)C (single isomer, unassigned) [linalool, reference compound]
antennal response (GC-EAD) to peaks of headspace extract [1]: positive antennal responses
antennal response (GC-EAD) [1]: Both male and female antennae responded
antennal response, previously determined [2]: consistent antennal response

Compound: CC(C)=CCC/C(C)=C/C=O [geranial, reference compound]
antennal response (GC-EAD) to peaks of headspace extract [1]: positive antennal responses

Compound: CC(C)C1=CC(=O)OCC1 [lactone]
antennal response (GC-EAD) [1]: No antennal response; also recorded: Neither responded

stability in acidic medium (lactonization to 2) ([3]; listed as 1E): noticeable cyclization of 1E to 2
stability in acidic medium (lactonization to 2) ([3]; listed as putative pheromone): instability
thermal stability ([3]; preparative GC with conventional injection port): thermal instability
storage stability ([3]; purified sample, up to 25° C. in aprotic solvents (benzene, hexane, ethyl acetate)): stores indefinitely
Compound: COC(=O)/C=C(\CCO)C(C)C [methyl (E)-3-(2-hydroxyethyl)-4-methyl-2-pentenoate]
Number choosing A (air) ([4]; female weevils): 17
Number choosing B (odor source) ([4]; female weevils): 48
No choice (number) ([4]; female weevils): 17
No response (number) ([4]; female weevils): 71
preference for odor source versus clean air (in words) ([4]; female weevils, α=0.05, G-test): consistently moved upwind more often
preference for odor source versus clean air (in words) ([4]; female weevils, α=0.05, G-test, listed as synthetic pheromone): more often as compared to clean air
Number choosing A (air) ([4]; male weevils): 30
Number choosing B (odor source) ([4]; male weevils): 34
preference for odor source versus clean air (in words) ([4]; male weevils, listed as pheromone): did not show a clear preference
preference for odor source versus clean air (in words) ([4]; male weevils, listed as synthetic pheromone): no clear preference
No choice (number) ([4]; male weevils): 20
No response (number) ([4]; male weevils): 69
antennal response (GC-EAD) to peaks of headspace extract [1]: elicit a response from male and female antennae
antennal response (GC-EAD) [1]: Both male and female antennae responded

Compound: COC(=O)/C=C(/CCO)C(C)C [methyl (Z)-3-(2-hydroxyethyl)-4-methyl-2-pentenoate]
antennal response (GC-EAD) [1]: inactive
antennal response (GC-EAD) ([1]; listed as Z isomer): No antennal response; also recorded: Neither responded
